What was measured:
[1] = target: EN PA (Influenza A virus, UniProt P15659); assay: EN PA FRET Inhibition Assay; type: biochemical; conditions: read-out: Potency
[2] = test system: Influenza strain A549 A/WSN/33 (H1N1); assay: Influenza Antiviral Assay; type: cell-based, Influenza A virus; conditions: Influenza A virus, A549, 20 h, neuraminidase fluorescence readout, read-out: % Inhibition

Compound | IC50 [1] | EC50 [2]
CNC(=O)c1nn(CC2(c3ccccc3)CCC(C)(C)C2)cc(O)c1=O (centres unmarked) [Compound 776] | < 100 nM | < 20000 nM
O=C(NC1CC1)c1nn(CC2(c3ccccc3)CCCC2)cc(O)c1=O [Compound 676] | < 100 nM | < 20000 nM
CNC(=O)c1nn(CC(C)(C)n2cc(C(F)(F)F)c3cccnc32)cc(O)c1=O [Compound 704] | < 100 nM | < 20000 nM
O=C(O)c1nn(-c2ccc3c(c2)CCC3)cc(O)c1=O [Compound 10] | 100 to 1000 nM | > 100000 nM
CNC(=O)c1nn(CC2(n3ccc4ccc(F)cc43)CCCC2)cc(O)c1=O [Compound 861] | < 100 nM | < 20000 nM
Cc1csc(CNC(=O)c2nn(CC3(c4cccc(C(F)(F)F)c4)CCCC3)cc(O)c2=O)c1 [Compound 663] | 100 to 1000 nM | > 100000 nM
O=C(O)c1nn(-c2ccccc2N2CCCC(c3ccccc3)C2)cc(O)c1=O (centres unmarked) [Compound 211] | 100 to 1000 nM | 20000 to 100000 nM
CC(C)(CO)NC(=O)c1nn(CC2(n3ccc4cccnc43)CCCC2)cc(O)c1=O [Compound 867] | < 100 nM | < 20000 nM
CNC(=O)c1nn(CC2(n3cc(C)c4cccnc43)CCCC2)cc(OC(=O)N(C)C)c1=O [Compound 765] | ≥ 1000 nM | 20000 to 100000 nM
O=C(NCc1ccccc1)c1nn(CC2(c3cncnc3)CCCC2)cc(O)c1=O [Compound 832] | < 100 nM | > 100000 nM
O=C(NC1CCCC1)c1nn(CC2(c3cccc(C(F)(F)F)c3)CCCC2)cc(O)c1=O [Compound 514] | 100 to 1000 nM | < 20000 nM
Cc1cc(CNC(=O)c2nn(CC3(c4cccc(C(F)(F)F)c4)CCCC3)cc(O)c2=O)[nH]n1 [Compound 648] | < 100 nM | < 20000 nM
CNC(=O)c1nn(-c2ccccc2-c2ccccc2OC2CCCC2)cc(O)c1=O [Compound 610] | 100 to 1000 nM | 20000 to 100000 nM
CNC(=O)c1nn(CC2c3ccccc3CCc3ccccc32)cc(O)c1=O [Compound 670] | 100 to 1000 nM | > 100000 nM
CCOC(=O)[C@H]1[C@@H]2CC(Cn3cc(O)c(=O)c(C(=O)NC)n3)(n3cc(C)c4cccnc43)C[C@@H]21 (some centres unmarked) [Compound 874] | 100 to 1000 nM | > 100000 nM
O=C(O)c1nn(-c2ccccc2-c2ccccc2OC2CCCC2)cc(O)c1=O [Compound 319] | 100 to 1000 nM | < 20000 nM
Cc1cn(C2(Cn3cc(O)c(=O)c(C(=O)N4CCOCC4)n3)CCCC2)c2ncccc12 [Compound 877] | 100 to 1000 nM | > 100000 nM
CNC(=O)c1nn(CC2(n3ccc4cc(OC)cnc43)CCCC2)cc(O)c1=O [Compound 886] | < 100 nM | < 20000 nM
CNC(=O)c1nn(CC(c2ccccc2)C2CCCC2)cc(O)c1=O (centres unmarked) [Compound 658] | 100 to 1000 nM | > 100000 nM
Cc1ccc(C2(Cn3cc(O)c(=O)c(C(=O)O)n3)CC2)cc1 [Compound 655] | < 100 nM | > 100000 nM
CNC(=O)c1nn(CC2(c3cc(C)c4ncccc4c3)CCCC2)cc(O)c1=O [Compound 846] | < 100 nM | < 20000 nM
O=C(NCC1CC1)c1nn(CC2(n3cc(Cl)c4cccnc43)CCCC2)cc(O)c1=O [Compound 760] | < 100 nM | < 20000 nM
O=C(NCC(F)(F)F)c1nn(CC2(c3cccc(C(F)(F)F)c3)CCCC2)cc(O)c1=O [Compound 505] | 100 to 1000 nM | < 20000 nM

Compound | IC50 [1] | EC50 [2]
Cc1cn(C2(Cn3cc(O)c(=O)c(C(=O)NCCNC(=O)OC(C)(C)C)n3)CCCC2)c2ncccc12 [Compound 876] | < 100 nM | < 20000 nM
O=C(O)c1nn(CCCc2ccccc2)cc(O)c1=O [Compound 402] | 100 to 1000 nM | > 100000 nM
CCOC(=O)Oc1cn(CC2(n3cc(C)c4cccnc43)CCCC2)nc(C(=O)NC)c1=O [Compound 775] | < 100 nM | < 20000 nM
O=C(NC1CCC1)c1nn(CC2(c3cccc(C(F)(F)F)c3)CCCC2)cc(O)c1=O [Compound 515] | 100 to 1000 nM | > 100000 nM
Cc1ccc(CNC(=O)c2nn(CC3(c4cccc(C(F)(F)F)c4)CCCC3)cc(O)c2=O)cc1 [Compound 524] | 100 to 1000 nM | < 20000 nM
CNC(=O)c1nn(CC2(c3cc(C)cc4ncccc34)CCCC2)cc(O)c1=O [Compound 889] | < 100 nM | < 20000 nM
CNC(=O)c1nn(CC2(c3ccc4cc(C)ccc4c3)CCCC2)cc(O)c1=O [Compound 879] | < 100 nM | < 20000 nM
Cc1ccc(OC(C)C)c(-c2ccccc2-n2cc(O)c(=O)c(C(=O)O)n2)c1 [Compound 314] | 100 to 1000 nM | > 100000 nM
CNC(=O)c1nn(CC2(n3cc(Cl)c4cccnc43)CCCC2)cc(O)c1=O [Compound 743] | < 100 nM | < 20000 nM
O=C(O)c1nn(-c2cccc(Oc3ccccc3)c2)cc(O)c1=O [Compound 6] | 100 to 1000 nM | > 100000 nM
Cc1cn(C2(Cn3cc(O)c(=O)c(C(=O)NCC(C)(C)CN)n3)CCCC2)c2ncccc12 [Compound 870] | < 100 nM | 20000 to 100000 nM
Cc1ccc(C(C)(C)Cn2cc(O)c(=O)c(C(=O)O)n2)cc1 [Compound 416] | < 100 nM | 20000 to 100000 nM
NC(=O)c1nn(CC2(c3cccc(-c4ccccc4)c3)CCCC2)cc(O)c1=O [Compound 722] | < 100 nM | > 100000 nM
CNC(=O)c1nn(CC2(n3cc(C(=O)NC)c4cccnc43)CCCC2)cc(O)c1=O [Compound 880] | < 100 nM | > 100000 nM
CNC(=O)c1nn(CC2(c3cccc(OC)c3)CCCC2)cc(O)c1=O [Compound 703] | < 100 nM | < 20000 nM
O=C(O)c1nn(CC2(c3ccccc3)CCCC2)cc(O)c1=O [Compound 410] | < 100 nM | < 20000 nM
CN(C)C(=O)c1nn(CC2(c3cccc(C(F)(F)F)c3)CCCC2)cc(O)c1=O [Compound 504] | ≥ 1000 nM | 20000 to 100000 nM
CNC(=O)c1nn(CC2(n3cc(C)c4cccnc43)CCCC2)cc(OC(=O)C(C)(C)C)c1=O [Compound 679] | < 100 nM | < 20000 nM
O=C1NCC/C=C/Cc2ccc3c(C(=O)C(F)(F)F)cn(c3c2)C2(CCCC2)Cn2cc(O)c(=O)c1n2 [Compound 836] | ≥ 1000 nM | > 100000 nM
CNC(=O)c1nn(CC2(n3ccc4c(Cl)cccc43)CCCC2)cc(O)c1=O [Compound 856] | < 100 nM | < 20000 nM
O=C(NCc1ccc(Cl)c(Cl)c1)c1nn(CC2(c3cccc(C(F)(F)F)c3)CCCC2)cc(O)c1=O [Compound 513] | 100 to 1000 nM | < 20000 nM
CNC(=O)c1nn(CC2(n3ccc4c(F)cccc43)CCCC2)cc(O)c1=O [Compound 859] | < 100 nM | < 20000 nM
CNC(=O)c1nn(CC2(c3c[nH]c4ccccc34)CCCC2)cc(O)c1=O [Compound 831] | 100 to 1000 nM | > 100000 nM

Compound | IC50 [1] | EC50 [2]
CNC(=O)c1nn(CC2(c3cc(C(F)(F)F)cc(C(F)(F)F)c3)CCCC2)cc(O)c1=O [Compound 506] | 100 to 1000 nM | < 20000 nM
CNC(=O)c1nn(CC2(c3ccc4ccccc4c3)CCCC2)cc(O)c1=O [Compound 777] | < 100 nM | < 20000 nM
CNC(=O)c1nn(CC2(n3cc(C)c4cccnc43)CCCC2)cc(OC(=O)OC(C)C)c1=O [Compound 793] | 100 to 1000 nM | < 20000 nM
CNC(=O)c1nn(CC2(n3ccc4ccc(C)cc43)CCCC2)cc(O)c1=O [Compound 810] | < 100 nM | < 20000 nM
CNC(=O)c1nn(CC2(n3ccc4cc(Cl)cnc43)CCCC2)cc(O)c1=O [Compound 818] | < 100 nM | < 20000 nM
CNC(=O)c1nn(CC2(n3cc(-c4ccccc4)c4cccnc43)CCCC2)cc(O)c1=O [Compound 671] | 100 to 1000 nM | < 20000 nM
CNC(=O)c1nn(CC2(n3cc(C)c4cccnc43)CCCCC2)cc(OC(=O)OC(C)(C)C)c1=O [Compound 806] | < 100 nM | < 20000 nM
O=C(NCc1ccc2c(c1)OCO2)c1nn(CC2(c3cccc(C(F)(F)F)c3)CCCC2)cc(O)c1=O [Compound 625] | 100 to 1000 nM | < 20000 nM
CNC(=O)c1nn(Cc2ccccc2-c2ccccc2)cc(O)c1=O [Compound 654] | 100 to 1000 nM | > 100000 nM
C=Cc1cccc(C2(Cn3cc(O)c(=O)c(C(=O)NC)n3)CCCC2)c1 [Compound 738] | < 100 nM | < 20000 nM
CNC(=O)c1nn(-c2ccccc2-c2cccc(OC)c2)cc(O)c1=O [Compound 611] | ≥ 1000 nM | > 100000 nM
CNC(=O)c1nn(CC2(n3cc(C(F)(F)F)c4cccnc43)CCCC2)cc(O)c1=O [Compound 681] | < 100 nM | < 20000 nM
O=C(O)c1nn(CCc2cccc3ccccc23)cc(O)c1=O [Compound 423] | 100 to 1000 nM | > 100000 nM
O=C(O)c1nn(-c2ccccc2S(=O)(=O)c2ccccc2)cc(O)c1=O [Compound 24] | < 100 nM | > 100000 nM
O=C(NC1(C(F)(F)F)CCCC1)c1nn(CC2(c3cccc(C(F)(F)F)c3)CCCC2)cc(O)c1=O [Compound 503] | 100 to 1000 nM | < 20000 nM
Cc1cn(C2(Cn3cc(O)c(=O)c(C(=O)NCCCO)n3)CCCC2)c2ncccc12 [Compound 759] | < 100 nM | < 20000 nM
O=C(NCc1ccccc1)c1nn(-c2ccccc2S(=O)(=O)c2ccccc2)cc(O)c1=O [Compound 605] | 100 to 1000 nM | 20000 to 100000 nM
C[C@H](NC(=O)c1nn(CC2(n3cc(Cl)c4cccnc43)CCCC2)cc(O)c1=O)C(F)(F)F [Compound 772] | 100 to 1000 nM | < 20000 nM
O=C(NCc1ccccc1)c1nn(CC2(c3ccncc3)CCCC2)cc(O)c1=O [Compound 825] | 100 to 1000 nM | < 20000 nM
O=C(O)c1nn(-c2ccccc2Oc2ccccc2)cc(O)c1=O [Compound 9] | 100 to 1000 nM | > 100000 nM
CNC(=O)c1nn(-c2ccccc2-c2cc(OC)ccc2Cl)cc(O)c1=O [Compound 612] | ≥ 1000 nM | 20000 to 100000 nM

From US10364226B2, “Pyridazinone compounds and uses thereof” (priority 2013, dated 2019)
